Key:
[1] = Gel consistency: elastic shear modulus G′ by rheometer; type: physicochemical; settings: 4.8% Isopropyl Myristate in gel, vs pure gel (Table 7)
Source text: 1. Preparation of Materials for Performance Characterization. • Characterization of rheological properties: for these characterizations, a ˜0.6 g sample of non-crosslinked SACSG should be placed in the measuring cell. In the case of mixtures obtained by the direct mode, a sample of the degassed mixture whose preparation has just been described is used. If Parts A′ and B′ which have been obtained by the indirect method are available, both Parts A′ and B′ are rehomogenised if necessary, equivalent masses of A′ and B′ are weighed and mixed with a spatula; after degassing at 20-50 mbar at room temperature until the bubbles are eliminated (about 10 minutes), a sample of the mixture may be taken and placed in the measuring cell. […]
The consistency of the gels is characterized by their elastic shear modulus, which is measured as follows: • rheometer: Thermofisher RS 6000. • Plan-Plan cell: rotor with 20 mm radius, rotor/stator gap=0.5 mm. • mode: imposed stress=10 Pa. • oscillation frequency: 1 Hz. • temperature: sample installation at 30°. • closing of the cell in two steps: 3 mm/mn until D=1.5 mm, then 0.15 mm/mn until D=0.5 mm. • temperature rise to 70° in 60 s. • measurement G′-G″ at 70° for 4000 s, return to 30°. […]

[2] = Miscibility / solubility of added substances in self-adhesive silicone gel (SASG); settings: liquid in SASG

| drop of G′ value [1] [%] | miscibility with SASG [2] | Structure (SMILES) |
| --- | --- | --- |
| 20 | – | CCCCCCCCCCCCCC(=O)OC(C)C [Isopropyl Myristate] |
| – | 12-15% | COC(=O)c1ccccc1O [Methyl Salicylate] |
